The test system of one test is db/db mice. The experiment in a line: Antidiabetic effects in db/db mice, Example B (2 weeks daily oral dosing). Format: in vivo, mouse. The conditions noted are these: for Glucose (% of Control) / Glucose: 2 weeks; for Glucose: nonfasting; for Free Fatty Acids ± SEM / Triglycerides ± SEM: serum, 2 weeks daily oral, dose not given in Table 17 (see Table 16). An excerpt:
db/db mice have a defect in leptin signaling, leading to hyperphagia, obesity and diabetes. Moreover, unlike ob/ob mice on a C57BL/6J background, db/db mice on a C57BL/KS background undergo failure of their insulin-producing pancreatic islet cells, resulting in progression from hyperinsulinemia (associated with peripheral insulin resistance) to hypoinsulinemic diabetes.
Male obese (db/db homozygote) C57BL/Ksola mice approximately 8 weeks of age, were obtained from Jackson Labs (Bar Harbor, Me.) and randomly assigned into groups of 5-7 animals such that the body weights (50-55 g) and serum glucose levels (≧300 mg/dl in fed state) were similar between groups; male lean (db/+heterozygote) mice served as cohort controls. A minimum of 7 days was allowed for adaptation after arrival. All animals were maintained under controlled temperature (23° C.), relative humidity (50±5%) and light (7:00-19:00), and allowed free access to standard chow (Formulab Diet 5008, Quality Lab Products, Elkridge, Md.) and water.
Treatment cohorts were given daily oral doses of Vehicle (1% hydroxypropylmethylcellulose), Compounds BI, CE, BT, BV, […] or Fenofibrate for 2 weeks. At the end of the treatment period 100 μl of venous blood was withdrawn in a heparinized capillary tube from the retro-orbital sinus of db/db mice for serum chemistry analysis.

Test [1] deals with male ob/ob mouse model of Type II diabetes. Description: Antidiabetic effects in ob/ob mice (serum chemistry after 2 weeks daily oral dosing). Format: in vivo. Also noted: key to Glucose ± SEM: serum glucose in mg/dl; Triglycerides ± SEM / Free Fatty Acids ± SEM: unit not given here. The conditions noted are these: for Free Fatty Acids ± SEM / Triglycerides ± SEM / Glucose ± SEM: 60 mg/kg; for Glucose / Glucose (% of Control): 60 mg/kg daily oral, 2 weeks; for Glucose ± SEM: Table 15. How it is done: Obese (ob/ob) mice have a defect in the protein leptin, a regulator of appetite and fuel metabolism, leading to hyperphagia, obesity and diabetes.
Male obese (ob/ob homozygote) C57BL/6J mice, approximately 8 weeks of age, were obtained from Jackson Labs (Bar Harbor, Me.) and randomly assigned into groups of 5 animals each such that the body weights (45-50 g) and serum glucose levels (≧300 mg/dl in fed state) were similar between groups. A minimum of 7 days was allowed for adaptation after arrival. All animals were maintained under controlled temperature (23° C.), relative humidity (50±5%) and light (7:00-19:00), and allowed free access to standard chow (Formulab Diet 5020 Quality Lab Products, Elkridge, Md.) and water.
Treatment cohorts were given daily oral doses of vehicle (1% hydroxypropyl-methylcellulose), Compounds BI, CF, CA, CB, CC, or CD for 2 weeks. At the end of the treatment period 100 μl of venous blood was withdrawn in a heparinized capillary tube from the retro-orbital sinus of ob/ob mice for serum chemistry analysis.

Test [2] has as its system Human PPARγ LBD fusion protein. The experiment in a line: Transcription activation potential, GAL4 luciferase reporter in C3A cells. Format: cell-based. How it is done: Cells were seeded in 24 well plates the day prior to transfection at 5×10^4−2×10^5 cells/well, depending upon cell type. Cells were transfected using Lipofectamine 2000 reagent from Invitrogen. A total of 0.8 μg DNA/well was added to 50 μL of Optimem Reduced Serum media (serum free; Gibco). Lipofectamine 2000 was added (2.5 μL/well) to another tube containing 50 μL of Optimem media. Plasmid DNA was added at a ratio of 4:3 (reporter:activator); where appropriate, salmon sperm DNA was substituted for activator expressing plasmid. […] DNA constructs containing the mouse PPARα or PPARγ LBD fused to the GAL4 DNA binding domain were also used. The two solutions were incubated at room temperature for 5 min, and then combined. The combined solution was incubated at room temperature for approximately 30 min. Cells were washed once with PBS, and 100 μL of transfection mix added to each well. Plates were incubated at 37° C. in a 5% CO2 incubator for 4.5 hr, followed by aspiration of the transfection mix, with plates refed using EMEM complete media (supplemented with 10% FBS, 1× Glutamine). 24 hr post-transfection, plates were treated with the appropriate compounds in EMEM complete media, followed by washing once with PBS and addition of 100 μL 1× reporter lysis buffer/well (Promega) 24 hr after treatment. Plates went through one freeze/thaw cycle prior to analysis. Approximately 10 μL of lysate was added to 100 μL of firefly luciferase substrate, mixed by pipetting, and analyzed on a luminometer for 10 s using the integration function (relative luciferase units/RLU) or on a Microbeta Trilux (luciferase counts per second/LCPS). Each treatment was performed in triplicate, and in multiple, separate experiments.
A general note: A reporter such as luciferase makes a cellular process visible.

In test [3] the target is T1, Mouse PPARα LBD fusion protein (Mus musculus, UniProt P23204).
T1 sequence (P23204 239-466): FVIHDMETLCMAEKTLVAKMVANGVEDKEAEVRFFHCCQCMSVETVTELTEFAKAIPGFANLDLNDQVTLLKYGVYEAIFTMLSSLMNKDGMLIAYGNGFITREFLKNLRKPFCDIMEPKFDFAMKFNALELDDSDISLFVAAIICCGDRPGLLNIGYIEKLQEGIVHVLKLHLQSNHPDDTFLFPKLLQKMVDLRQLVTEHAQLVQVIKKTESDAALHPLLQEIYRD
The test is described as above. Format: cell-based. How it is done:
(§1) Cells were seeded in 24 well plates the day prior to transfection at 5×10^4−2×10^5 cells/well, depending upon cell type. Cells were transfected using Lipofectamine 2000 reagent from Invitrogen. A total of 0.8 μg DNA/well was added to 50 μL of Optimem Reduced Serum media (serum free; Gibco). Lipofectamine 2000 was added (2.5 μL/well) to another tube containing 50 μL of Optimem media. Plasmid DNA was added at a ratio of 4:3 (reporter:activator); where appropriate, salmon sperm DNA was substituted for activator expressing plasmid. The reporter plasmid used was pFR-Luc, which has the firefly luciferase gene under the control of a GAL4 UAS ([…]) containing promoter. The activator expressing plasmids contain yeast GAL4 DNA binding domain (dbd) fusion of either human PPARα ligand binding domain (LBD; a.a. 167-468) or human PPARγ LBD (a.a. 176-479). DNA constructs containing the mouse PPARα or PPARγ LBD fused to the GAL4 DNA binding domain were also used. The two solutions were incubated at room temperature for 5 min, and then combined. The combined solution was incubated at room temperature for approximately 30 min. Cells were washed once with PBS, and 100 μL of transfection mix added to each well. Plates were incubated at 37° C. in a 5% CO2 incubator for 4.5 hr, followed by aspiration of the transfection mix, with plates refed using EMEM complete media (supplemented with 10% FBS, 1× Glutamine). 24 hr post-transfection, plates were treated with the appropriate compounds in EMEM complete media, followed by washing once with PBS and addition of 100 μL 1× reporter lysis buffer/well (Promega) 24 hr after treatment. Plates went through one freeze/thaw cycle prior to analysis. Approximately 10 μL of lysate was added to 100 μL of firefly luciferase substrate, mixed by pipetting, and analyzed on a luminometer for 10 s using the integration function (relative luciferase units/RLU) or on a Microbeta Trilux (luciferase counts per second/LCPS). Each treatment was performed in triplicate, and in multiple, separate experiments.

In test [4] the target is T2, Human PPARα LBD fusion protein (Homo sapiens, UniProt Q07869).
T2 construct: a.a; 167-468)
T2 sequence (Q07869 167-468): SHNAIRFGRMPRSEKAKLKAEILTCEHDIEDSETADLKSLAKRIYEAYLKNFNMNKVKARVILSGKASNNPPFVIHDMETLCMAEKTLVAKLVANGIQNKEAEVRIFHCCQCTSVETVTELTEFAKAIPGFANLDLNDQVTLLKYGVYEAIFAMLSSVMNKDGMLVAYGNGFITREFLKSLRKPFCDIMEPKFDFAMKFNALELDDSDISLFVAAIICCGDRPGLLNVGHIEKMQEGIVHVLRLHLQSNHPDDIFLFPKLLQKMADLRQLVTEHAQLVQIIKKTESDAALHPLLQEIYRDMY
Described as above. Format: cell-based. How it is done:
as §1

As to `COc1cc(C(=O)CCC(=O)O)ccc1OCc1c(C)cccc1C` [BT, 4-[[4-(2,6-Dimethylbenzyloxy)-3-methoxy]phenyl]-4-oxobutyric acid], in the test with db/db mice (107 mg/kg daily oral), the “Glucose (% of Control)” value is listed as 99 ± 9 % of Control and the “Glucose” value came out at 684.3 ± 63.6 mg/dL. In the test on db/db mice, the “Free Fatty Acids ± SEM” value is 3897.7 ± 291.3 µM and the “Triglycerides ± SEM” value came out at 211.5 ± 21.5 mg/dL.
As to `Cc1cccc(C)c1COc1ccccc1` [CA, (2,6-Dimethylbenzyloxy)benzene], in test [1], the “Free Fatty Acids ± SEM” value was 1572.2 ± 118.0, the “Triglycerides ± SEM” value is reported as 92.6 ± 13.7, the “Glucose” value stood at 402.6 ± 61.0 mg/dL and the “Glucose (% of Control)” value is listed as 95 ± 14.0 % of Control. Moreover, the “Glucose ± SEM” value in test [1] is 402.6 ± 61.0.
Regarding `COC(=O)CC(=O)c1cccc(OCc2c(C)cccc2C)c1` [CB, Methyl 3-(3-(2,6-Dimethylbenzyloxy)phenyl)-3-oxopropionate], in test [1], the “Free Fatty Acids ± SEM” value was 2076.2 ± 169.0, the “Triglycerides ± SEM” value is listed as 118.8 ± 18.0, the “Glucose” value was 494.4 ± 72.3 mg/dL and the “Glucose (% of Control)” value was 117.0 ± 17.0 % of Control. For the same compound, in test [1], the “Glucose ± SEM” value turned out to be 494.4 ± 72.3.
Take `Cc1cccc(C)c1COc1cccc(C(C=O)CC(N)=O)c1` (stereo not drawn) [CC, 3-(3-(2,6,-Dimethylbenzyloxy)phenyl)-4-oxobutyramide]: in test [1], the “Triglycerides ± SEM” value worked out at 91.6 ± 13.4, the “Glucose” value is 444.4 ± 89.5 mg/dL, the “Glucose (% of Control)” value was 105.0 ± 21.0 % of Control and the “Glucose ± SEM” value stood at 444.4 ± 89.5.
As to `Cc1cccc(C)c1COc1cccc(C(=O)CCCC(=O)O)c1` [CD, 5-(3-(2,6-Dimethylbenzyloxy)phenyl)-5-oxopentanoic acid], in test [1], the “Free Fatty Acids ± SEM” value worked out at 1961.8 ± 194.2, the “Triglycerides ± SEM” value came to 119.0 ± 14.2, the “Glucose” value is reported as 505.6 ± 63.5 mg/dL and the “Glucose (% of Control)” value is recorded as 119.0 ± 15.0 % of Control. Also, the “Glucose ± SEM” value in test [1] was found to be 505.6 ± 63.5.
Take `CC(C)OC(=O)C(C)(C)Oc1ccc(C(=O)c2ccc(Cl)cc2)cc1` [Fenofibrate, reference compound]: in the test on db/db mice (113 mg/kg daily oral), the “Glucose (% of Control)” value is 81 ± 7 % of Control and the “Glucose” value is given as 563.2 ± 49.0 mg/dL. In addition, in the test on db/db mice, the “Free Fatty Acids ± SEM” value was 3318.5 ± 208.7 µM and the “Triglycerides ± SEM” value is reported as 109.3 ± 9.1 mg/dL.
On to `CN(CCOc1ccc(CC2SC(=O)NC2=O)cc1)c1ccccn1` (stereo not drawn) [Rosiglitazone, rosiglitazone, reference compound], for which the “transcription activation potential (luciferase) ± standard deviation” value in test [2] (Table 22b line 1 μM, rosiglitazone at one-fifth the listed concentration (0.2 μM)) stood at 124 ± 33.8 LCPS; in test [2] (Table 22b line 3 μM, rosiglitazone at one-fifth the listed concentration), 134.8 ± 47.8 LCPS; in test [2] (Table 22b line 10 μM, rosiglitazone at one-fifth the listed concentration), 626.6 ± 227 LCPS; in test [2] (Table 22b line 30 μM, rosiglitazone at one-fifth the listed concentration), 887.2 ± 338.2 LCPS; in test [2] (Table 22b line 100 μM, rosiglitazone at one-fifth the listed concentration), 1034.1 ± 400.5 LCPS.
In the case of `Cc1cccc(Nc2cc(Cl)nc(SCC(=O)O)n2)c1C` [Wy, reference compound], the “transcription activation potential (luciferase) ± standard deviation” value is listed as 406.73 ± 80.11 LCPS in test [3] (1 μM, Table 20a); 295.8 ± 40.31 LCPS in test [3] (3 μM, Table 20a); 324.37 ± 11.06 LCPS in test [3] (10 μM, Table 20a); 414 ± 122.52 LCPS in test [3] (30 μM, Table 20a); 325.3 ± 91.83 LCPS in test [3] (100 μM, Table 20a); 55972 ± 5162 RLU in test [3] (100 μM, Table 21a). For the same compound, the “transcription activation potential (luciferase) ± standard deviation” value in test [3] (200 μM, Table 20a) is 115.2 ± 21.52 LCPS; in test [4] (1 μM), 181.8 ± 47.6 LCPS; in test [4] (3 μM), 153.1 ± 2.8 LCPS; in test [4] (10 μM), 315.4 ± 36.5 LCPS; in test [4] (30 μM), 648.6 ± 47.5 LCPS; in test [4] (100 μM), 412.23 ± 114 LCPS.
As to `CC(C(=O)O)c1cccc(Oc2ccccc2)c1` (stereo not drawn) [fenoprofen, reference compound], in test [3] (100 μM, Table 21a), the “transcription activation potential (luciferase) ± standard deviation” value amounted to 4440 ± 213 RLU.

These data come from patent US7932290B2, “Method for the treatment of metabolic disorders” (Wellstat Biologics Corporation, priority 2003, dated 2011).
